# Measured values as given in article PMC6430017, “Structural and chemical insights into the covalent-allosteric inhibition of the protein kinase Akt” (Chemical Science, 2019).
# Columns and labels:
# Experiment in all cases: SelectScreen Z'LYTE kinase profiling
# Format in all cases: biochemical
# Conditions in all cases: ATP at apparent KM
# PRKCA (PKC alpha) = PRKCA (PKC alpha) (Homo sapiens, UniProt P17252)
# Procedure: (§1) protein kinases at a compound concentration of 1 µM. Measurements were performed in duplicates
# (§2) and at the particular apparent ATP KM of each individual kinase employing the activity based Z’LYTE®
# (§3) kinase assay of the SelectScreen® Kinase Profiling Services (ThermoFisher Scientific).
# (§4) kinases at a compound concentration of 1 µM. Measurements were performed in duplicates and at
# (§5) the particular apparent ATP KM of each individual kinase employing the activity based Z’LYTE® kinase
# (§6) assay of the SelectScreen® Kinase Profiling Services (ThermoFisher Scientific).
# JAK3 = molecular target: T1, JAK3 (Homo sapiens, UniProt P52333)
# T1 sequence (P52333 1-1124): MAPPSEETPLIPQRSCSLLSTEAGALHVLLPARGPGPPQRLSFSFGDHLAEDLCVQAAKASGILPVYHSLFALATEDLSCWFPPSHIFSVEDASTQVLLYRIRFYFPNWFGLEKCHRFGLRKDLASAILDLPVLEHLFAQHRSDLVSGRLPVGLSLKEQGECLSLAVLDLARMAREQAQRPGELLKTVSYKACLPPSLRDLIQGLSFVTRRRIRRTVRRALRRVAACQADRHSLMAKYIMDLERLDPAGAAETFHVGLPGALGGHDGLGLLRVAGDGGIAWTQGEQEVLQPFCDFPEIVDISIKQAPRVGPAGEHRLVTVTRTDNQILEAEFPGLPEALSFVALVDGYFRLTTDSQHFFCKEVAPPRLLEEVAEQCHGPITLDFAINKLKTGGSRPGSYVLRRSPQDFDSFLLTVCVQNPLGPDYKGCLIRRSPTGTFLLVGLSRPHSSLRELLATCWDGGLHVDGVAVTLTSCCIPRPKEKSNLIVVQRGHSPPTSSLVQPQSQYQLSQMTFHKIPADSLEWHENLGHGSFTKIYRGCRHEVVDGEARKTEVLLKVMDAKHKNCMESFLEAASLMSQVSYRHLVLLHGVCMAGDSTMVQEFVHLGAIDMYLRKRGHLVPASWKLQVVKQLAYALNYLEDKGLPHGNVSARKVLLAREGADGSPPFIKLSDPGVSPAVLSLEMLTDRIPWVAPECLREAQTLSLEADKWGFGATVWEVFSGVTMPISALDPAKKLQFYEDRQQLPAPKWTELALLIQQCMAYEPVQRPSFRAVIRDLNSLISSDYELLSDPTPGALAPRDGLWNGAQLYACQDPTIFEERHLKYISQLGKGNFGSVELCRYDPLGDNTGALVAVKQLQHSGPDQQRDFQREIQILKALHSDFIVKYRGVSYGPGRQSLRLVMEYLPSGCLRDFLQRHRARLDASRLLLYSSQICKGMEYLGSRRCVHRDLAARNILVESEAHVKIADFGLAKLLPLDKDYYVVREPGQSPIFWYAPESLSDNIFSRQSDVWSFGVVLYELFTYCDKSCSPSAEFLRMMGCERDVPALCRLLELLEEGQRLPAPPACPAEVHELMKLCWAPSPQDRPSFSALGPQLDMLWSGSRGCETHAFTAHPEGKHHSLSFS
# Procedure: as §1, §2, §3, §4, §5, §6
# GSK3B (GSK3 beta) = GSK3B (GSK3 beta) (Homo sapiens, UniProt P49841)
# Sequence of GSK3B (GSK3 beta) (P49841 whole entry): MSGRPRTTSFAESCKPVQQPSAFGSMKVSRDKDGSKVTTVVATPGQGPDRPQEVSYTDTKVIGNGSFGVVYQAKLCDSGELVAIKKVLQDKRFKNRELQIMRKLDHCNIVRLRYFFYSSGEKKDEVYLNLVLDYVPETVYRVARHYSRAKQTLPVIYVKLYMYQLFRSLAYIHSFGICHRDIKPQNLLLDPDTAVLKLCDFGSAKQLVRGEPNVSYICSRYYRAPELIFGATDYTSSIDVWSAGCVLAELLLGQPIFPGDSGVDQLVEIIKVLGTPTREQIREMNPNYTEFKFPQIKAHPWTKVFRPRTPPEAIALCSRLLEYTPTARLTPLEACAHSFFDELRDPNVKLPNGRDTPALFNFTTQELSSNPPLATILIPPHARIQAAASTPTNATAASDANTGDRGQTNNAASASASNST
# Procedure: as §1, §2, §3, §4, §5, §6
# RPS6KA1 (RSK1) = RPS6KA1 (RSK1) (Homo sapiens, UniProt Q15418)
# Sequence of RPS6KA1 (RSK1) (Q15418 whole entry): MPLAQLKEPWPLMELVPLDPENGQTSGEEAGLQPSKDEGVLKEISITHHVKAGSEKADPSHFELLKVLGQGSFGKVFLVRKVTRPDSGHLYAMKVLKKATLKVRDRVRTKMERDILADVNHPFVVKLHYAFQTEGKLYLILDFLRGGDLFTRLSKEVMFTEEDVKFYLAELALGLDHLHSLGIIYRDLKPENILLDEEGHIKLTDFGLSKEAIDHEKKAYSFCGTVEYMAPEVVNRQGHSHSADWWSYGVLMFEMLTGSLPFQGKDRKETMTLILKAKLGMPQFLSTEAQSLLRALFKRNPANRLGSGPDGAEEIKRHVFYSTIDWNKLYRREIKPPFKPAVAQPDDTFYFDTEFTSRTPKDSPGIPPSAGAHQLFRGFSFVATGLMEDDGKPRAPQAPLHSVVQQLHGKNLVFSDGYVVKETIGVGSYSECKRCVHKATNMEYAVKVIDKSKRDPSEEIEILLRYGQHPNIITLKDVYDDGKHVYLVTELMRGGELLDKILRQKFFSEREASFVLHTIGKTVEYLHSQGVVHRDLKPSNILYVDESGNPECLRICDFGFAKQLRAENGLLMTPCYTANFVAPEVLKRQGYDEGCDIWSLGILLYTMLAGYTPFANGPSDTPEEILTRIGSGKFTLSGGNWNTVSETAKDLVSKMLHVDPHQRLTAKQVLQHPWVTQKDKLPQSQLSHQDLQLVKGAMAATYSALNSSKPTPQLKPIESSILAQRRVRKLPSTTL
# Procedure: as §1, §2, §3, §4, §5, §6
# PRKCQ (PKC theta) = PRKCQ (PKC theta) (Homo sapiens, UniProt Q04759)
# Sequence of PRKCQ (PKC theta) (Q04759 whole entry): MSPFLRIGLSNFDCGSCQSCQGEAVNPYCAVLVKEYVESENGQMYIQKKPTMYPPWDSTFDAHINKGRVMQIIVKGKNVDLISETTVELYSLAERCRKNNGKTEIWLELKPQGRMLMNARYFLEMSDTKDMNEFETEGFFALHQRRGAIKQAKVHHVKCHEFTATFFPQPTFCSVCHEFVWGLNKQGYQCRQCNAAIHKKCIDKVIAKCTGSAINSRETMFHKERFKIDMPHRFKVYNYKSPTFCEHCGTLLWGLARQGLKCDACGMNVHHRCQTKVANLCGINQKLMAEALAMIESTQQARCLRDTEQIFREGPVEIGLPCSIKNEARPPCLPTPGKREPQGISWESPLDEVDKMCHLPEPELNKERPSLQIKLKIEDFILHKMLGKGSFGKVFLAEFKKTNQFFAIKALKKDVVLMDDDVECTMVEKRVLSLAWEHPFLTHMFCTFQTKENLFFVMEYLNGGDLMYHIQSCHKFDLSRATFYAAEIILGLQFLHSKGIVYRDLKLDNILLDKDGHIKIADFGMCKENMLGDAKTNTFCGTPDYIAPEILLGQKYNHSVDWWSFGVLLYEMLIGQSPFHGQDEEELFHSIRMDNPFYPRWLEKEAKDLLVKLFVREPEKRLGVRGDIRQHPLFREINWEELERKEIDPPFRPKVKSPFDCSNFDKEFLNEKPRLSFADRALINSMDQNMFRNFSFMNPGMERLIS
# Procedure: as §1, §2, §3, §4, §5, §6
# AURKA (Aurora A) = molecular target: T2, AURKA (Aurora A) (Homo sapiens, UniProt O14965)
# T2 sequence (O14965 1-403): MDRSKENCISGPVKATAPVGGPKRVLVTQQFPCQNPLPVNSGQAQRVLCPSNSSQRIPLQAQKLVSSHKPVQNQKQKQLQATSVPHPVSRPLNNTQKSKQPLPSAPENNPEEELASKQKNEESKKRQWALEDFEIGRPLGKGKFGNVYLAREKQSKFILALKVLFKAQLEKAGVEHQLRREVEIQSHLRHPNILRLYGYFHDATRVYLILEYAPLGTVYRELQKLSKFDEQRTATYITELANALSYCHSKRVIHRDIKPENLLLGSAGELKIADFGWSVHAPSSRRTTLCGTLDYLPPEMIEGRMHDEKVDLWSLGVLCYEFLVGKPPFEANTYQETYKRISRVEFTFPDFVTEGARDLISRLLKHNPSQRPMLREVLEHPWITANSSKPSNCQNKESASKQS
# Procedure: as §1, §2, §3, §4, §5, §6
# JAK2 = JAK2 (Homo sapiens, UniProt O60674)
# Procedure: as §1, §2, §3, §4, §5, §6
# PRKACA (PKA) = PRKACA (PKA) (Homo sapiens, UniProt P17612)
# Procedure: as §1, §2, §3, §4, §5, §6
# MET (cMet) = MET (cMet) (Homo sapiens, UniProt P08581)
# Procedure: as §1, §2, §3, §4, §5, §6
# PRKCD (PKC delta) = PRKCD (PKC delta) (Homo sapiens, UniProt Q05655)
# Procedure: as §1, §2, §3, §4, §5, §6
# ERBB2 (HER2) = ERBB2 (HER2) (Homo sapiens, UniProt P04626)
# Procedure: as §1, §2, §3, §4, §5, §6
# CAMK4 (CaMKIV) = molecular target: T3, CAMK4 (CaMKIV) (Homo sapiens, UniProt Q16566)
# T3 sequence (Q16566 1-473): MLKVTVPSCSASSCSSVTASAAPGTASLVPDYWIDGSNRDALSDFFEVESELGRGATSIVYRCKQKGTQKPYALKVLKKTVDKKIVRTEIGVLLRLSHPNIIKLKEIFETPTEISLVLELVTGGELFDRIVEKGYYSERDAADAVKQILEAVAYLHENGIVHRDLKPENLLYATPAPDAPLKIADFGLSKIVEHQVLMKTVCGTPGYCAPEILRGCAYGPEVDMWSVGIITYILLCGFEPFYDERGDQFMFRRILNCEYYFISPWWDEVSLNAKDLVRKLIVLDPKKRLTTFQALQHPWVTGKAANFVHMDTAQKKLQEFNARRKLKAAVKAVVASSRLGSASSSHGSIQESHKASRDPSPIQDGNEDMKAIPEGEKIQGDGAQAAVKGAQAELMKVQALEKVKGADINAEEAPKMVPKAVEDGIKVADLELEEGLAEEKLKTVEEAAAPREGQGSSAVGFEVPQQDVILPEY
# Procedure: as §1, §2, §3, §4, §5, §6
# ALK = ALK (Homo sapiens, UniProt Q9UM73)
# Sequence of ALK (Q9UM73 19-1620): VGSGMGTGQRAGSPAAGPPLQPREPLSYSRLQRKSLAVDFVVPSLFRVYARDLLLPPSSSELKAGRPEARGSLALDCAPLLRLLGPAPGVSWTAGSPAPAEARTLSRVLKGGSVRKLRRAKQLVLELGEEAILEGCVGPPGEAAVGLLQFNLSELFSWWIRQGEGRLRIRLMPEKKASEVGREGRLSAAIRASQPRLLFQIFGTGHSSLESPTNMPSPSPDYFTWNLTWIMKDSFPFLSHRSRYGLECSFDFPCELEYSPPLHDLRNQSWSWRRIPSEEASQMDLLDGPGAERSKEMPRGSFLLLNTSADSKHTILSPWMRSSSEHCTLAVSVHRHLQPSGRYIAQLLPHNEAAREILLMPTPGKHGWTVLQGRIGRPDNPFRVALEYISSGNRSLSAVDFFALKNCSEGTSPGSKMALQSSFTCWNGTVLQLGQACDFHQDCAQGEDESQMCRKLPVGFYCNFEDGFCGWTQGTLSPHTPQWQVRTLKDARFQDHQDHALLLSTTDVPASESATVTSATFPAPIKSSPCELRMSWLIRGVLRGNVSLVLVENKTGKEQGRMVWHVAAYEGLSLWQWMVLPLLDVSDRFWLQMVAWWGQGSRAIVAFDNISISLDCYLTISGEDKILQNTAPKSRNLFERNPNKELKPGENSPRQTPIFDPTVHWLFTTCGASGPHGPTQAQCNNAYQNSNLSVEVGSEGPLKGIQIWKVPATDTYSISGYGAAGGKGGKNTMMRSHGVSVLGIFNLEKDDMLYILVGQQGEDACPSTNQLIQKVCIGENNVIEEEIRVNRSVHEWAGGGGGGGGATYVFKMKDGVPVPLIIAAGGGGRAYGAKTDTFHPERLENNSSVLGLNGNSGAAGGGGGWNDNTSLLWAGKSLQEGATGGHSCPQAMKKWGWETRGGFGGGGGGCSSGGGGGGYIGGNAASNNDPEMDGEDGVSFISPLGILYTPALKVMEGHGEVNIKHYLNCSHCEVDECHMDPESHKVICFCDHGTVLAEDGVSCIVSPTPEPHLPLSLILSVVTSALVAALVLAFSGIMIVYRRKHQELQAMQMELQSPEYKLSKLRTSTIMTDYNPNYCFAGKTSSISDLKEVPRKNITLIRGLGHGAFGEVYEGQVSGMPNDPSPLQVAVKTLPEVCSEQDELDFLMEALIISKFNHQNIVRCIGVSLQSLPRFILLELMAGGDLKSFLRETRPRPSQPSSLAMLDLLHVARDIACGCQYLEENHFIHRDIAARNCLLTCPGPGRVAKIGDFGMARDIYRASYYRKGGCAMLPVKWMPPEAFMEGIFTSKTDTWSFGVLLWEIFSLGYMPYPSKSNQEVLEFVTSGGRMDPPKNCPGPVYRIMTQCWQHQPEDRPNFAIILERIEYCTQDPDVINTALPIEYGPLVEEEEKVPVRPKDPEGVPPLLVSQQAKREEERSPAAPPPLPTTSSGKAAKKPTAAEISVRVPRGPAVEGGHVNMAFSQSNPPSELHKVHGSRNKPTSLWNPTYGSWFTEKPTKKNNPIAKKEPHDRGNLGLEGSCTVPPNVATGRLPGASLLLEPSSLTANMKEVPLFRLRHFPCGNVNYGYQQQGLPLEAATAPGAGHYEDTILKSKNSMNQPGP
# Procedure: as §1, §2, §3, §4, §5, §6
# LCK = LCK (Homo sapiens, UniProt P06239)
# Sequence of LCK (P06239 whole entry): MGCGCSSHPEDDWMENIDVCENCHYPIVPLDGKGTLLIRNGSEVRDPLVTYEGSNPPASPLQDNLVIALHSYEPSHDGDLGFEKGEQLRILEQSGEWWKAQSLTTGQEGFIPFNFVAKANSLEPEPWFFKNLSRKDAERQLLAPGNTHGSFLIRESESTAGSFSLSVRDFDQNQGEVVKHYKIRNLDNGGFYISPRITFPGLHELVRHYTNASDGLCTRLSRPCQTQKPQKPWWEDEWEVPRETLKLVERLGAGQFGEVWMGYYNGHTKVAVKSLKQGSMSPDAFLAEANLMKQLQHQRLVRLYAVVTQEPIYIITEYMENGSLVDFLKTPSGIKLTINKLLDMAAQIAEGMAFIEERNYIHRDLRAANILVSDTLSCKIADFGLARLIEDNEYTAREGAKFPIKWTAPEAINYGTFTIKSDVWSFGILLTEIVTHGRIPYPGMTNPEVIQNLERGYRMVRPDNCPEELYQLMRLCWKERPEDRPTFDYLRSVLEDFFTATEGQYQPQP
# Procedure: as §1, §2, §3, §4, §5, §6
Structure (SMILES),inhibition at 1 µM (PRKCA (PKC alpha)),inhibition at 1 µM (JAK3),inhibition at 1 µM (GSK3B (GSK3 beta)),inhibition at 1 µM (RPS6KA1 (RSK1)),inhibition at 1 µM (PRKCQ (PKC theta)),inhibition at 1 µM (AURKA (Aurora A)),inhibition at 1 µM (JAK2),inhibition at 1 µM (PRKACA (PKA)),inhibition at 1 µM (MET (cMet)),inhibition at 1 µM (PRKCD (PKC delta)),inhibition at 1 µM (ERBB2 (HER2)),inhibition at 1 µM (CAMK4 (CaMKIV)),inhibition at 1 µM (ALK),inhibition at 1 µM (LCK)
C=CC(=O)Nc1cccc(C(=O)NC2CCN(Cc3ccc(-c4nc5cc[nH]c(=O)c5cc4-c4ccccc4)cc3)CC2)c1 [30b],27%,26%,29%,27%,13%,22%,16%,10%,0%,9%,-2%,10%,1%,8%
C=CC(=O)Nc1cc(NC(=O)NC2CCN(Cc3ccc(-c4nc5cc[nH]c(=O)c5cc4-c4ccccc4)cc3)CC2)ccc1Cl [compound 27],16%,17%,18%,22%,11%,10%,0%,-4%,4%,6%,0%,8%,2%,4%
C=CC(=O)Nc1ccc2c(c1)n(C1CCN(Cc3ccc(-c4nc5cc[nH]c(=O)c5cc4-c4ccccc4)cc3)CC1)c(=O)n2C [24b],23%,23%,22%,14%,7%,7%,2%,2%,1%,0%,-1%,-1%,-3%,-3%
